{
  "source": "patent EP0251013A2",
  "about": "“Fluorine containing o-aminophenols” (BAYER AG, priority 1986, dated 1988)",
  "format_in_all_cases": "in vivo",
  "key": {"Baumwolle [1]": {"system": "Baumwolle", "experiment": "Pre-emergence test, greenhouse", "details": "Baumwolle, 1,0 kg/ha, rated after three weeks vs untreated control (0 % = no effect, 100 % = total destruction)", "source_text": "(§1) Lösungsmittel: 5 Gewichtsteile Aceton Emulgator: 1 Gewichtsteil Alkylarylpolyglykolether\n(§2) Zur Herstellung einer zweckmäßigen Wirkstoffzubereitung vermischte man 1 Gewichtsteil Wirkstoff mit der angegebenen Menge Lösungsmittel, gab die angegebene Menge Emulgator zu und verdünnte das Konzentrat mit Wasser auf die gewünschte Konzentration.\n(§3) Samen der Testpflanzen wurden in normalen Boden ausgesät und nach 24 Stunden mit der Wirkstoffzubereitung begossen. Dabei wurde die Wassermenge pro Flächeneinheit zweckmäßigerweise konstant gehalten. Die Wirkstoffkonzentration in der Zubereitung spielte keine Rolle, entscheidend war nur die Aufwandmenge des Wirkstoffs pro Flächeneinheit. Nach drei Wochen wurde der Schädigungsgrad der Pflanzen bonitiert in % Schädigung im Vergleich zur Entwicklung der unbehandelten Kontrolle. Es bedeuten: • 0 % = keine Wirkung (wie unbehandelte Kontrolle) • 100 % = totale Vernichtung"}, "Chenopodium [2]": {"system": "Chenopodium", "experiment": "Pre-emergence test, greenhouse", "details": "Chenopodium, 1,0 kg/ha, rated after three weeks vs untreated control", "source_text": "as §1, §2, §3"}, "Cynodon": {"system": "Cynodon", "experiment": "Pre-emergence test, greenhouse", "details": "Cynodon, 1,0 kg/ha, rated after three weeks vs untreated control", "source_text": "as §1, §2, §3"}, "Datura": {"system": "Datura", "experiment": "Pre-emergence test, greenhouse", "details": "Datura, 1,0 kg/ha, rated after three weeks vs untreated control", "source_text": "as §1, §2, §3"}, "Matricaria": {"system": "Matricaria", "experiment": "Pre-emergence test, greenhouse", "details": "Matricaria, 1,0 kg/ha, rated after three weeks vs untreated control", "source_text": "as §1, §2, §3"}, "Portulak": {"system": "Portulak", "experiment": "Pre-emergence test, greenhouse", "details": "Portulak, 1,0 kg/ha, rated after three weeks vs untreated control", "source_text": "as §1, §2, §3"}, "Stellaria": {"system": "Stellaria", "experiment": "Pre-emergence test, greenhouse", "details": "Stellaria, 1,0 kg/ha, rated after three weeks vs untreated control", "source_text": "as §1, §2, §3"}, "Weizen": {"system": "Weizen", "experiment": "Pre-emergence test, greenhouse", "details": "Weizen, 1,0 kg/ha, rated after three weeks vs untreated control", "source_text": "as §1, §2, §3"}, "Baumwolle [3]": {"system": "Baumwolle", "experiment": "Post-emergence test, greenhouse", "details": "Baumwolle, 0,25 kg/ha, sprayed on plants 5 - 15 cm high, rated after three weeks vs untreated control (0 % = no effect, 100 % = total destruction)", "source_text": "as §1, §2\n(§4) Mit der Wirkstoffzubereitung spritzte man Testpflanzen, welche eine Höhe von 5 - 15 cm hatten so, daß die jeweils gewünschten Wirkstoffmengen pro Flächeneinheit ausgebracht wurden. Die Konzentration der Spritzbrühe wurde so gewählt, daß in 2000 1 Wasser/ha die jeweils gewünschten Wirkstoffmengen ausgebracht wurden. Nach drei Wochen wurde der Schädigungsgrad der Pflanzen bonitiert in % Schädigung im Vergleich zur Entwicklung der unbehandelten Kontrolle.\n(§5) Es bedeuten: • 0 % = keine Wirkung (wie unbehandelte Kontrolle) • 100 % = totale Vernichtung"}, "Chenopodium [4]": {"system": "Chenopodium", "experiment": "Post-emergence test, greenhouse", "details": "Chenopodium, 0,25 kg/ha, rated after three weeks vs untreated control", "source_text": "as §1, §2, §4, §5"}, "Echinochloa": {"system": "Echinochloa", "experiment": "Post-emergence test, greenhouse", "details": "Echinochloa, 0,25 kg/ha, rated after three weeks vs untreated control", "source_text": "as §1, §2, §4, §5"}, "Mais": {"system": "Mais", "experiment": "Post-emergence test, greenhouse", "details": "Mais, 0,25 kg/ha, rated after three weeks vs untreated control", "source_text": "as §1, §2, §4, §5"}, "Poa": {"system": "Poa", "experiment": "Post-emergence test, greenhouse", "details": "Poa, 0,25 kg/ha, rated after three weeks vs untreated control", "source_text": "as §1, §2, §4, §5"}, "Sinapis": {"system": "Sinapis", "experiment": "Post-emergence test, greenhouse", "details": "Sinapis, 0,25 kg/ha, rated after three weeks vs untreated control", "source_text": "as §1, §2, §4, §5"}, "Solanum": {"system": "Solanum", "experiment": "Post-emergence test, greenhouse", "details": "Solanum, 0,25 kg/ha, rated after three weeks vs untreated control", "source_text": "as §1, §2, §4, §5"}},
  "data": [
    {"smiles": "FC(Cl)(Cl)Sn1c(C(F)(F)F)nc2cc(C(F)(F)F)c(Cl)cc21", "note": "[Beispiel 13, 1-Dichlorfluormethylsulfenyl-2,5-bis(trifluormethyl)-6-chlorbenzimidazol]", "values": [
      {"measurement": "Schädigungsgrad der Pflanzen in % Schädigung", "setting": "Baumwolle [1]", "value": 0, "unit": "%"},
      {"measurement": "Schädigungsgrad der Pflanzen in % Schädigung", "setting": "Chenopodium [2]", "value": 100, "unit": "%"},
      {"measurement": "Schädigungsgrad der Pflanzen in % Schädigung", "setting": "Cynodon", "value": 100, "unit": "%"},
      {"measurement": "Schädigungsgrad der Pflanzen in % Schädigung", "setting": "Datura", "value": 80, "unit": "%"},
      {"measurement": "Schädigungsgrad der Pflanzen in % Schädigung", "setting": "Matricaria", "value": 80, "unit": "%"},
      {"measurement": "Schädigungsgrad der Pflanzen in % Schädigung", "setting": "Portulak", "value": 100, "unit": "%"},
      {"measurement": "Schädigungsgrad der Pflanzen in % Schädigung", "setting": "Stellaria", "value": 80, "unit": "%"},
      {"measurement": "Schädigungsgrad der Pflanzen in % Schädigung", "setting": "Weizen", "value": 0, "unit": "%"},
      {"measurement": "Schädigungsgrad der Pflanzen in % Schädigung", "setting": "Baumwolle [3]", "value": 20, "unit": "%"},
      {"measurement": "Schädigungsgrad der Pflanzen in % Schädigung", "setting": "Chenopodium [4]", "value": 100, "unit": "%"},
      {"measurement": "Schädigungsgrad der Pflanzen in % Schädigung", "setting": "Echinochloa", "value": 80, "unit": "%"},
      {"measurement": "Schädigungsgrad der Pflanzen in % Schädigung", "setting": "Mais", "value": 50, "unit": "%"},
      {"measurement": "Schädigungsgrad der Pflanzen in % Schädigung", "setting": "Poa", "value": 100, "unit": "%"},
      {"measurement": "Schädigungsgrad der Pflanzen in % Schädigung", "setting": "Sinapis", "value": 100, "unit": "%"},
      {"measurement": "Schädigungsgrad der Pflanzen in % Schädigung", "setting": "Solanum", "value": 100, "unit": "%"}
    ]}
  ]
}
